ChEMBL document CHEMBL1201862, “PubChem BioAssay data set” (2004)
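Exposure lasted 48 hours, with cells grown in 96-well plates and compounds tested at five concentrations. GI50 marks 50% less growth.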 Activity calls are given as the source filed them. Cut-off read from the data, not from the text of the source: active = GI50 up to about 1.1 µM and inactive = higher.

How the values were obtained:
Test in all cases: NCI tumour cell line growth inhibition, 48 h
OVCAR-4 = system: OVCAR-4
HOP-62 = system: HOP-62
COLO 205 = system: COLO 205
LOX IMVI = system: LOX IMVI
PC-3 = system: PC-3
M14 = system: M14
A498 = system: A498
EKVX = system: EKVX
MDA-MB-435 = system: MDA-MB-435
HL-60 = system: HL-60
OVCAR-3 = system: OVCAR-3
SNB-19 = system: SNB-19
SK-OV-3 = system: SK-OV-3
SN12C = system: SN12C
SK-MEL-28 = system: SK-MEL-28
CCRF-CEM = system: CCRF-CEM
SF-268 = system: SF-268
SK-MEL-2 = system: SK-MEL-2
IGROV-1 = system: IGROV-1
NCI-H460 = system: NCI-H460

| Compound | GI50 (OVCAR-4) | GI50 (HOP-62) | GI50 (COLO 205) | GI50 (LOX IMVI) | GI50 (PC-3) | GI50 (M14) | GI50 (A498) | GI50 (EKVX) | GI50 (MDA-MB-435) | GI50 (HL-60) | GI50 (OVCAR-3) | GI50 (SNB-19) | GI50 (SK-OV-3) | GI50 (SN12C) | GI50 (SK-MEL-28) | GI50 (CCRF-CEM) | GI50 (SF-268) | GI50 (SK-MEL-2) | GI50 (IGROV-1) | GI50 (NCI-H460) |
| --- | --- | --- | --- | --- | --- | --- | --- | --- | --- | --- | --- | --- | --- | --- | --- | --- | --- | --- | --- | --- |
| CC1=NN(c2nc(N)nc(CSc3cc(Cl)c(C)cc3S(N)(=O)=O)n2)C(C)(C)C1 | > 10 µM (inactive) | > 10 µM (inactive) | > 10 µM (inactive) | > 10 µM (inactive) | > 10 µM (inactive) | > 10 µM (inactive) | > 10 µM (inactive) | > 10 µM (inactive) | > 10 µM (inactive) | > 10 µM (inactive) | > 10 µM (inactive) | > 10 µM (inactive) | > 10 µM (inactive) | > 10 µM (inactive) | > 10 µM (inactive) | > 10 µM (inactive) | > 10 µM (inactive) | > 10 µM (inactive) | > 10 µM (inactive) | > 10 µM (inactive) |
| C/C=C(\C)C(=O)OC1/C=C(\C)CC/C=C(\C)CC2OC(=O)C(C)(OC(C)=O)C12 (stereo not given) | > 100 µM (inactive) | > 100 µM (inactive) | > 100 µM (inactive) | > 100 µM (inactive) | > 100 µM (inactive) | > 100 µM (inactive) | > 100 µM (inactive) | > 100 µM (inactive) | > 100 µM (inactive) | 59.7 µM (inactive) | > 100 µM (inactive) | > 100 µM (inactive) | > 100 µM (inactive) | > 100 µM (inactive) | > 100 µM (inactive) | > 100 µM (inactive) | > 100 µM (inactive) | > 100 µM (inactive) | > 100 µM (inactive) | > 100 µM (inactive) |
| COC(=O)c1ccccc1C#CCCCOS(C)(=O)=O | > 10 µM (inactive) | > 10 µM (inactive) | > 10 µM (inactive) | > 10 µM (inactive) | > 10 µM (inactive) | > 10 µM (inactive) | > 10 µM (inactive) | > 10 µM (inactive) | > 10 µM (inactive) | > 10 µM (inactive) | > 10 µM (inactive) | > 10 µM (inactive) | > 10 µM (inactive) | > 10 µM (inactive) | > 10 µM (inactive) | > 10 µM (inactive) | > 10 µM (inactive) | > 10 µM (inactive) | > 10 µM (inactive) | > 10 µM (inactive) |
| O=C(Nc1ccn(C2CC(I)C(COC(c3ccccc3)(c3ccccc3)c3ccccc3)O2)c(=O)n1)c1ccccc1 (stereo not given) | 3.75 µM (inactive) | 14 µM (inactive) | 7.59 µM (inactive) | 8.18 µM (inactive) | 2.36 µM (inactive) | 10.8 µM (inactive) | 7.03 µM (inactive) | 13.2 µM (inactive) | 7.36 µM (inactive) | 5.83 µM (inactive) | 4.25 µM (inactive) | 12.9 µM (inactive) | 15.5 µM (inactive) | 4.36 µM (inactive) | 11.4 µM (inactive) | 8.89 µM (inactive) | 12 µM (inactive) | > 10 µM (inactive) | 13.3 µM (inactive) | 7.11 µM (inactive) |
| FC(F)(F)c1ccc2c(c1)nc(Cc1ccccc1)n2C[C@@H]1CCCN2CCCCC12 (stereo not given in full) | 15.2 µM (inactive) | 14.6 µM (inactive) | 14.1 µM (inactive) | 15.1 µM (inactive) | 14.3 µM (inactive) | 10.6 µM (inactive) | 15.5 µM (inactive) | 8.47 µM (inactive) | 14.9 µM (inactive) | 1.59 µM (inactive) | 14.8 µM (inactive) | 14.8 µM (inactive) | 17.5 µM (inactive) | 13.1 µM (inactive) | 16.2 µM (inactive) | 17.1 µM (inactive) | 14.8 µM (inactive) | 16.3 µM (inactive) | 12.9 µM (inactive) | 15.2 µM (inactive) |
| CN(C)c1ccc(C=C2N=C(c3ccccc3)N(c3cc(C(=O)c4ccccc4)ccc3N3C(=O)/C(=C/c4ccc(N(C)C)cc4)N=C3c3ccccc3)C2=O)cc1 | 7.21 µM (inactive) | 20.7 µM (inactive) | 3.74 µM (inactive) | 5.98 µM (inactive) | 3.51 µM (inactive) | 4.95 µM (inactive) | 3.48 µM (inactive) | 20.5 µM (inactive) | 1.9 µM (inactive) | 5.01 µM (inactive) | 2.12 µM (inactive) | 7.94 µM (inactive) | 4.75 µM (inactive) | 58.7 µM (inactive) | > 100 µM (inactive) | 3.49 µM (inactive) | 14.4 µM (inactive) | 3.29 µM (inactive) | 5.86 µM (inactive) | 3.94 µM (inactive) |
| COc1cc(N(CCC#N)CCC#N)ccc1C(/N=N/c1cccc([N+](=O)[O-])c1)=N\NC(=O)c1ccc(C)cc1 | 53.7 µM (inactive) | > 100 µM (inactive) | > 100 µM (inactive) | > 100 µM (inactive) | > 100 µM (inactive) | > 100 µM (inactive) | > 100 µM (inactive) | 10.4 µM (inactive) | > 100 µM (inactive) | 10.8 µM (inactive) | 96.8 µM (inactive) | > 100 µM (inactive) | > 100 µM (inactive) | > 100 µM (inactive) | > 100 µM (inactive) | 20.6 µM (inactive) | > 100 µM (inactive) | > 100 µM (inactive) | > 100 µM (inactive) | 24.3 µM (inactive) |
| O=C1N[C@@H]2c3c(Br)sc(Br)c3C(=O)[C@@H]2O1 | 1.79 µM (inactive) | 22 µM (inactive) | 2.56 µM (inactive) | 1.83 µM (inactive) | 6.41 µM (inactive) | 1.97 µM (inactive) | 16.7 µM (inactive) | 2.13 µM (inactive) | 2.47 µM (inactive) | 0.743 µM (active) | 1.8 µM (inactive) | 15.8 µM (inactive) | 18.7 µM (inactive) | 2.93 µM (inactive) | 2.62 µM (inactive) | 1.57 µM (inactive) | 7.66 µM (inactive) | 16.8 µM (inactive) | 4.84 µM (inactive) | 8.67 µM (inactive) |
| C/C(=N/NC(=S)Nc1ccccc1Cl)c1cccc(/C(C)=N\NC(=S)Nc2ccccc2Cl)n1 | 28.4 µM (inactive) | > 100 µM (inactive) | 56.8 µM (inactive) | 61.8 µM (inactive) | 36.1 µM (inactive) | 22 µM (inactive) | > 100 µM (inactive) | > 100 µM (inactive) | > 100 µM (inactive) | > 100 µM (inactive) | 16.3 µM (inactive) | 82.4 µM (inactive) | > 100 µM (inactive) | > 100 µM (inactive) | > 100 µM (inactive) | 9.79 µM (inactive) | > 100 µM (inactive) | > 100 µM (inactive) | 42.2 µM (inactive) | 5.47 µM (inactive) |
| CC(=O)Nc1ccc(OC/C(N)=N/NC(=O)c2ccncc2)cc1 | > 100 µM (inactive) | > 100 µM (inactive) | > 100 µM (inactive) | > 100 µM (inactive) | > 100 µM (inactive) | > 100 µM (inactive) | > 100 µM (inactive) | > 100 µM (inactive) | > 100 µM (inactive) | > 100 µM (inactive) | > 100 µM (inactive) | > 100 µM (inactive) | > 100 µM (inactive) | > 100 µM (inactive) | > 100 µM (inactive) | > 100 µM (inactive) | > 100 µM (inactive) | > 100 µM (inactive) | > 100 µM (inactive) | > 100 µM (inactive) |
| c1ccc2c(c1)CCc1[nH]c3c(c1-2)-c1ccccc1CC3 | 61.5 µM (inactive) | 15.1 µM (inactive) | > 100 µM (inactive) | 42.6 µM (inactive) | 64.1 µM (inactive) | 35 µM (inactive) | > 100 µM (inactive) | > 100 µM (inactive) | 74.6 µM (inactive) | 27.9 µM (inactive) | 91.4 µM (inactive) | > 100 µM (inactive) | > 100 µM (inactive) | > 100 µM (inactive) | > 100 µM (inactive) | 39.4 µM (inactive) | 78 µM (inactive) | > 100 µM (inactive) | > 100 µM (inactive) | 39.9 µM (inactive) |
| CS(=O)(=O)c1cc(=O)c2ccccc2s1 | 2.9 µM (inactive) | 20.5 µM (inactive) | 1.76 µM (inactive) | 6.68 µM (inactive) | 17.6 µM (inactive) | 1.85 µM (inactive) | 17.1 µM (inactive) | 9.06 µM (inactive) | 11 µM (inactive) | 1.84 µM (inactive) | 2.61 µM (inactive) | 17.5 µM (inactive) | 17.6 µM (inactive) | 9.53 µM (inactive) | 3.72 µM (inactive) | 1.53 µM (inactive) | 14.1 µM (inactive) | 15.3 µM (inactive) | 18.5 µM (inactive) | 18.1 µM (inactive) |
| CSc1nc(=O)c(C#N)c(-c2ccccc2)n1C1OC(COC(C)=O)C(OC(C)=O)C(OC(C)=O)C1OC(C)=O (stereo not given) | > 100 µM (inactive) | > 100 µM (inactive) | > 100 µM (inactive) | 98.4 µM (inactive) | 52.2 µM (inactive) | > 100 µM (inactive) | > 100 µM (inactive) | > 100 µM (inactive) | > 100 µM (inactive) | > 100 µM (inactive) | 78.3 µM (inactive) | > 100 µM (inactive) | > 100 µM (inactive) | > 100 µM (inactive) | > 100 µM (inactive) | 99.8 µM (inactive) | > 100 µM (inactive) | > 100 µM (inactive) | > 100 µM (inactive) | 31.3 µM (inactive) |
| COc1ccc(/C=C/NC=O)cc1 | > 100 µM (inactive) | > 100 µM (inactive) | > 100 µM (inactive) | > 100 µM (inactive) | > 100 µM (inactive) | > 100 µM (inactive) | > 100 µM (inactive) | > 100 µM (inactive) | > 100 µM (inactive) | > 100 µM (inactive) | > 100 µM (inactive) | > 100 µM (inactive) | > 100 µM (inactive) | > 100 µM (inactive) | > 100 µM (inactive) | > 100 µM (inactive) | > 100 µM (inactive) | > 100 µM (inactive) | > 100 µM (inactive) | > 100 µM (inactive) |
